According to patent US9271963B2, “Selective inhibitors of human corticosteroid synthases” (UNIVERSITAT DES SAARLANDES, priority 2005, dated 2016):
Where two headings read alike, the source gives them in different places.

Tests used:
human CYP17 = human CYP17 (Homo sapiens (Human), UniProt P05093); assay: CYP17 inhibition, membrane fraction of E. coli expressing human CYP17; type: biochemical; conditions: Table 1, progesterone 2.5 μM; for inhibition at 2.5 µM: inhibitor 2.5 μM, read-out: % Inhib. Human CYP17; for IC50: read-out: IC50 Human CYP17 (values in brackets)
Sequence of human CYP17 (P05093 whole entry): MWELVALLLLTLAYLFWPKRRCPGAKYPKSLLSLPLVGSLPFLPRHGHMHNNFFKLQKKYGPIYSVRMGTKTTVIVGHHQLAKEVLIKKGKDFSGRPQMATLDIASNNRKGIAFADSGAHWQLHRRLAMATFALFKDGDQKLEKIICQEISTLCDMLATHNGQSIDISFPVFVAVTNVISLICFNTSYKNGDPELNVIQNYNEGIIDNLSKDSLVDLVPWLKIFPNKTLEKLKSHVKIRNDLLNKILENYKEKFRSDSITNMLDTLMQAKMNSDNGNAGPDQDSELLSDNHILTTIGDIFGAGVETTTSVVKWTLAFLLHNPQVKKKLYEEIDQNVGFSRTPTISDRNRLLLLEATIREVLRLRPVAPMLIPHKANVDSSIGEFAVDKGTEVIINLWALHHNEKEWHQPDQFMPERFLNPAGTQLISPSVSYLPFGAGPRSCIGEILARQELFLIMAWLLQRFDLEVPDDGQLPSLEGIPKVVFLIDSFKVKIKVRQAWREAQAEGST

CYP11B1 [1] = target: T1, CYP11B1 (Homo sapiens (Human), UniProt P15538); conditions: NCI-H295R
T1 sequence (P15538 25-503): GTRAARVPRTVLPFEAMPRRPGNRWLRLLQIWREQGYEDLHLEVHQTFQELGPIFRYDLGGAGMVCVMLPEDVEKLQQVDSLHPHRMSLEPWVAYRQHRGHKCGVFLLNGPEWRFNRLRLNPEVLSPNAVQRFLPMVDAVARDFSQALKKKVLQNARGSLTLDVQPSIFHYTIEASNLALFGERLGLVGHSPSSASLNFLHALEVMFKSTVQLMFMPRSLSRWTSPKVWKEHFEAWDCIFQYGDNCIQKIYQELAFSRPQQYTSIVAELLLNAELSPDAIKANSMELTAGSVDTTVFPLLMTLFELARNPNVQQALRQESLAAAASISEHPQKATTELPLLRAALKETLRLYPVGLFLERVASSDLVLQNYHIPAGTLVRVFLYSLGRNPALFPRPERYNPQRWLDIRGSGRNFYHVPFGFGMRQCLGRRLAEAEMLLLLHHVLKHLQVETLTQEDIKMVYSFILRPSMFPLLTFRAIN

CYP11B1 [2] = target: T1, CYP11B1; assay: cell-based; conditions: NCI-H295R, read-out: NCI-H295R CYP11B1 RSS % inhibition
CYP11B2 [3] = target: T2, CYP11B2 (Homo sapiens (Human), UniProt P19099); assay: cell-based; conditions: NCI-H295R
T2 sequence (P19099 25-503): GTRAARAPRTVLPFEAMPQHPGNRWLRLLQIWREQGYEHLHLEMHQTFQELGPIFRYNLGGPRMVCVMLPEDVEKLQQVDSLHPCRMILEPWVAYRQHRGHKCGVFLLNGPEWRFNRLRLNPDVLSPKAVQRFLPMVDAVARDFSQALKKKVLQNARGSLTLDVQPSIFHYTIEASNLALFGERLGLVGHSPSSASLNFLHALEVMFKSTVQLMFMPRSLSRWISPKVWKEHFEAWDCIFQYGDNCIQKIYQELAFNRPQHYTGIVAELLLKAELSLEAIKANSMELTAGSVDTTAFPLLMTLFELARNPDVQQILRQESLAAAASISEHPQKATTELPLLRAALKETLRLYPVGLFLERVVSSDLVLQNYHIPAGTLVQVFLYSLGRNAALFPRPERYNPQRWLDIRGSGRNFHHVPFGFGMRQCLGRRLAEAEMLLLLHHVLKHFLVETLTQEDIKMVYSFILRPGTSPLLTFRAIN

human placental CYP19 = human placental CYP19 (Homo sapiens (Human), UniProt P11511); assay: CYP19 (aromatase) inhibition, human placental microsomes; type: biochemical; conditions: Table 1, androstenedione 2.5 μM; for % Inhib. Human CYP19 (values in brackets): inhibitor concentration not given
Sequence of human placental CYP19 (P11511 whole entry): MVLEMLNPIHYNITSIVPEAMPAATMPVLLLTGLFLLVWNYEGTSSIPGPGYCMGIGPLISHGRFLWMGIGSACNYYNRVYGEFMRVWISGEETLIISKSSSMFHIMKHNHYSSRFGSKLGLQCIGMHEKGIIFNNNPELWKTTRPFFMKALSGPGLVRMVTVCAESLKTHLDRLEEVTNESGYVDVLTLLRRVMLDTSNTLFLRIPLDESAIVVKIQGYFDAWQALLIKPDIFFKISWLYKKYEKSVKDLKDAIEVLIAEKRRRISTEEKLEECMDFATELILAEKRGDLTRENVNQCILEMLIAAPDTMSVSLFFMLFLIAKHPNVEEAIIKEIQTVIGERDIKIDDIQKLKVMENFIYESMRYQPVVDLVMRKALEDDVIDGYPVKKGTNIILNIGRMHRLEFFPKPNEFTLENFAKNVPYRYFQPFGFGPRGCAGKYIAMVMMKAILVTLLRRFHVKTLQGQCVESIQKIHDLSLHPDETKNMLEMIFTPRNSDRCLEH

[4] = system: steroid production in H295R cells; assay: cells; type: cell-based, human; conditions: for aldosterone secretion: within 6 hours; for inhibition at 2.5 µM / IC50: Homo sapiens, NCI-H295R; for inhibition at 2.5 µM: inhibitor 2.5 μM
CYP11B2 [5] = target: T2, CYP11B2; assay: Screening test in transgenic fission yeast (S. pombe) expressing human CYP11B2; type: cell-based
CYP11B1 [6] = target: T1, CYP11B1; assay: Inhibition test in V79 MZh11B1 cells (hamster fibroblasts expressing human CYP11B1); type: cell-based
CYP11B2 [7] = target: T2, CYP11B2; assay: Inhibition test in V79 MZh11B2 cells (hamster fibroblasts expressing human CYP11B2); type: cell-based; conditions: Table 1; deoxycorticosterone substrate 100 nM; read-out: IC50 value V79 11B2 hCYP11B2
[8] = read-out: NCI-H295R CYP11B2 B % inhibition
[9] = read-out: NCI-H295R CYP11B2 DOC % inhibition
[10] = H295R, 6 h incubation, read-out: % inhibition of DHEA production
[11] = H295R, 6 h incubation, read-out: % inhibition of aldosterone production
[12] = H295R, 6 h incubation, read-out: % inhibition of androstendione production
[13] = H295R, 6 h incubation, read-out: % inhibition of cortisol production
[14] = Table 1, S. pombe cells expressing human CYP11B2, deoxycorticosterone 100 nM, inhibitor 500 nM, read-out: % Inhib. Human hCYP11B2
[15] = Table 1, deoxycorticosterone substrate 100 nM, read-out: IC50 value V79 11B1 hCYP11B1
[16] = read-out: IC50 in V79MZh 11B1 cells (CYP11B1 inhibition)

inhibition at 2.5 µM (human CYP17) | IC50 (human placental CYP19) | inhibition at 0.5 µM (CYP11B2 [5]; [14]) | IC50 (CYP11B1 [6]; [15]) | IC50 (CYP11B2 [7]) | Compound | also measured
38% | 9110 nM | 68% | 1530 nM | 33 nM | COc1ccc2cc(-c3cccnc3)ccc2c1Br [Compound 10, 3-(5-Bromo-6-methoxy-2-naphthyl)pyridine] | –
– | 970 nM | 82% | 1540 nM | 28 nM | COc1ccc2c(Cl)c(-c3cccnc3)ccc2c1Cl [Compound 12, 3-(1,5-Dichloro-6-methoxy-2-naphthyl)pyridine] | IC50 (human CYP17): 233 nM
– | – | 46% | – | – | COc1ccc2ccc(-c3cccnc3)cc2c1 [Compound 13, 3-(7-Methoxy-2-naphthyl)pyridine] | –
– | – | 85% | 771 nM | 29 nM | COc1ccc2ccc(-c3cccnc3)c(Cl)c2c1 [Compound 14, 3-(1-Chloro-7-methoxy-2-naphthyl)pyridine] | IC50 (human CYP17): 27 nM; % Inhib. Human CYP19 (values in brackets) (human placental CYP19): [65] %
– | – | 38% | – | – | COc1cc2ccccc2cc1-c1cccnc1 [Compound 15, 3-(3-Methoxy-2-naphthyl)pyridine] | –
12% | 1250 nM | 66% | 10500 nM | 73 nM | COC(=O)c1ccc2cc(-c3cccnc3)ccc2c1 [Compound 16, Methyl-6-pyridin-3-yl-2-naphthoate] | –
– | – | 40% | – | – | c1cncc(-c2cnc3ccccc3c2)c1 [Compound 19, 3-Pyridin-3-ylquinoline] | –
– | – | 53% | – | – | c1cncc(-c2ccc3ccccc3n2)c1 [Compound 20, 2-Pyridin-3-ylquinoline] | –
13% | – | 80% | 1050 nM | 38 nM | c1ccc2cc(-n3ccnc3)ccc2c1 [Compound 23, 1-(2-Naphthyl)-1H-imidazole] | –
4% | 129 nM | 86% | 5020 nM | 40 nM | COc1cc2ccccc2cc1-n1ccnc1 [Compound 24, 1-(3-Methoxy-2-naphthyl)-1H-imidazole] | –
– | – | 16% | 805 nM | – | c1ccc2cc(-c3cnco3)ccc2c1 [Compound 29, 5-(2-Naphthyl)-1,3-oxazole] | CYP11B2 inhibition in S. pombe (CYP11B2 [5]): very low; IC50 (CYP11B1 [6]; [16]): 206 to 805 nM
– | – | 46% | – | – | COc1ccc2cc(-c3cncnc3)ccc2c1 [Compound 30, 5-(6-Methoxy-2-naphthyl)pyrimidine] | –

The remaining lines, values behind:

Compound | inhibition at 2.5 µM (human CYP17) | IC50 (human placental CYP19) | inhibition at 0.5 µM (CYP11B2 [5]; [14]) | IC50 (CYP11B1 [6]; [15]) | IC50 (CYP11B2 [7]) | also measured
c1cncc(-c2ccc3ccccc3c2)c1 [Compound 1, 3-(2-Naphthyl)pyridine] | 40% | – | – | – | – | influence on CYP11B1 in comparison with fadrozole (CYP11B1 [1]): clearly lower extent; inhibition at 2.5 µM (CYP11B1 [2]): 43.4 ± 4.7%; inhibition at 2.5 µM (CYP11B2 [3]; [8]): 45.6 ± 2.2%; inhibition at 2.5 µM (CYP11B2 [3]; [9]): 82.9 ± 0.9%
COc1ccc2cc(-c3cccnc3)ccc2c1 [Compound 2, 3-(6-Methoxy-2-naphthyl)pyridine] | – | 586 nM | – | – | – | IC50 (human CYP17): 667 nM; cortisol production compared with aldosterone production ([4]; H295R model): cortisol production is inhibited more strongly than the aldosterone production; androsterone production (so in the source) ([4]; H295R, 6 h): inhibited only to a low extent; aldosterone secretion ([4]; H295R): significant concentration-dependent decrease; inhibition at 2.5 µM [4, 10]: 84.5 ± 2%; inhibition at 2.5 µM [4, 11]: 56.4 ± 3.5%; inhibition at 2.5 µM [4, 12]: 84.6 ± 2%; inhibition at 2.5 µM [4, 13]: 78.6 ± 5.4%; IC50 ([4]; H295R, 6 h incubation, read-out: IC50 of DHEA production): < 1 nM; IC50 ([4]; H295R, 6 h incubation, read-out: IC50 of aldosterone production): 963 nM; IC50 ([4]; H295R, 6 h incubation, read-out: IC50 of androstendione production): < 1 nM; IC50 ([4]; H295R, 6 h incubation, read-out: IC50 of cortisol production): < 1 nM; influence on CYP11B1 in comparison with fadrozole (CYP11B1 [1]): clearly lower extent; inhibition at 2.5 µM (CYP11B1 [2]): 48.5 ± 2.9%; inhibition at 2.5 µM (CYP11B2 [3]; [8]): 49.5 ± 2.4%; inhibition at 2.5 µM (CYP11B2 [3]; [9]): 81.4 ± 6.6%
Oc1ccc2cc(-c3cccnc3)ccc2c1 [Compound 3, 6-Pyridin-3-yl-2-naphthol] | 65% | – | 88% | 715 nM | 23 nM | % Inhib. Human CYP19 (values in brackets) (human placental CYP19): [61] %
Brc1ccc2cc(-c3cccnc3)ccc2c1 [Compound 4, 3-(6-Bromo-2-naphthyl)pyridine] | 46% | – | 85% | 899 nM | 15 nM | % Inhib. Human CYP19 (values in brackets) (human placental CYP19): [33] %
CCOc1ccc2cc(-c3cccnc3)ccc2c1 [Compound 5, 3-(6-Ethoxy-2-naphthyl)pyridine] | 53% | 6640 nM | 86% | 883 nM | 12 nM | –
N#Cc1ccc2cc(-c3cccnc3)ccc2c1 [Compound 8, 6-Pyridin-3-yl-2-naphthonitrile] | – | – | 98% | 691 nM | 3 nM | IC50 (human CYP17): 686 nM; % Inhib. Human CYP19 (values in brackets) (human placental CYP19): [44] %
COc1ccc2cc(-c3cccnc3)ccc2c1Cl [Compound 9, 3-(5-Chloro-6-methoxy-2-naphthyl)pyridine] | 32% | 1800 nM | 86% | 569 nM | 13 nM | –
c1ccc2cc(-c3c[nH]cn3)ccc2c1 [Compound 27, 4(5)-(2-Naphthyl)-1H-imidazole] | – | – | – | 206 nM | – | % Inhib. Human hCYP11B2 (CYP11B2 [5]; Table 1, S. pombe cells expressing human CYP11B2, deoxycorticosterone 100 nM, inhibitor 500 nM): 41%; IC50 (CYP11B1 [6]; [16]): 206 nM
C1=C(n2ccnc2)CCc2ccccc21 [Compound 45, 1-(3,4-Dihydronaphthalene-2-yl)-1H-imidazole] | – | – | – | – | – | CYP11B2 inhibition in S. pombe (CYP11B2 [5]): very low; inhibition at 0.5 µM (CYP11B2 [5]; Table 2, S. pombe cells expressing human CYP11B2, deoxycorticosterone 100 nM, inhibitor 500 nM, read-out: % Inhibition Human hCYP11B2): 34%
COc1ccc2c(c1)CCC(n1ccnc1)=C2 [Compound 46, 1-(6-Methoxy-3,4-dihydronaphthalene-2-yl)-1H-imidazole] | – | – | – | – | – | CYP11B2 inhibition in S. pombe (CYP11B2 [5]): very low; inhibition at 0.5 µM (CYP11B2 [5]; read-out: % Inhibition Human hCYP11B2): 35%; IC50 (CYP11B1 [6]; [16]): 206 to 805 nM; IC50 (CYP11B1 [6]; read-out: IC50 value V79 11B1 hCY11B1): 763 nM
CC(=O)N1CCN(c2ccc(OCC3COC(Cn4ccnc4)(c4ccc(Cl)cc4Cl)O3)cc2)CC1 (stereo not shown) [Ketoconazole, reference compound] | – | – | – | – | – | aldosterone secretion ([4]; H295R): significant concentration-dependent decrease; IC50 ([4]; 6 h, read-out: IC50 of DHEA production): 51.8 nM; IC50 ([4]; 6 h, read-out: IC50 of aldosterone production): 13100 nM; IC50 ([4]; 6 h, read-out: IC50 of androstendione production): 59.6 nM; IC50 ([4]; 6 h, read-out: IC50 of cortisol production): 155 nM; inhibition at 2.5 µM [4, 10]: 94.4 ± 0.6%; inhibition at 2.5 µM [4, 11]: 33.3 ± 3.3%; inhibition at 2.5 µM [4, 12]: 89.2 ± 1.2%; inhibition at 2.5 µM [4, 13]: 88.1 ± 1%
